# Source: publication PMC12645437, “Orthogonal IMiD-Degron Pairs Induce Selective Protein Degradation in Cells” (ACS Chemical Biology, 2025)
# Where “and” joins values, the source holds several entries; their conditions need not be identical. Equal entries are not always repeated.
# Columns and labels:
# [1] = test system: library of 8380 IKZF3 degrons fused to EGFP in Jurkat cells; experiment: Pooled mutant ZF degron library screen (FACS EGFPlow vs EGFP+, NGS), 18 h; type: cell-based, human;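 for logFC: Log2 fold change of EGFPlow over EGFP+ representation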
# [2] = target: T1, Q147A mutant degron (ANQS) fused to EGFP (Homo sapiens, UniProt Q96SW2+Q9UKT9, Q147A); experiment: Ratiometric EGFP:mCherry flow cytometry degradation assay, 18 h; type: cell-based; conditions: for Dmax: Fig 2B, read-out: DMax Q147A/%
# T1 construct: pLVX-Sprout-IKZF3 130-189aa Q147A (ANQS); expressed in transfected cells
# [3] = target: WDIA mutant ZF degron fused to EGFP (Homo sapiens, UniProt Q96SW2+Q9UKT9, N149D/Q147W/Q150I/S154A); experiment: as above
# Jurkat cells = experiment: TMTpro quantitative proteomics, 16 h; conditions: Jurkat, 10 μM, 16 h; 9644 quantified proteins
# [4] = target: T2, WT IKZF3-derived degron fused to EGFP (Homo sapiens, UniProt Q96SW2+Q9UKT9); experiment: Ratiometric EGFP:mCherry flow cytometry degradation assay, 18 h; type: cell-based; conditions: Jurkat; for Degradation pDC50 WT: Fig 2B; for DC50 / pDC50: WT degron, Fig 5A
# T2 construct: Plasmid: pLVX-Sprout-IKZF3 130-189aa (WT); expressed in transfected cells
# [5] = target: T3, endogenous IKZF1 in Jurkat cells (Homo sapiens, UniProt Q13422+Q96SW2); experiment: Endogenous IKZF1 immunostaining, fluorescent antibody flow cytometry assay; type: cell-based; conditions: 18 h
# T3 construct: endogenous in cells; host or cells: Jurkat (untransduced for immunostaining; WEIS-EGFP-transduced for the blot)
# Method: As we sought to screen a large number of mutant ZF degrons with different mutation combinations, we pursued a library screen approach similar to that previously employed by Sievers et al. and Jan et al. , Only the most promising compounds from the original set of 36 were used for the library screen. To help narrow the candidates, a subset of compounds was tested for endogenous IKZF1 degradation in Jurkat cells using a fluorescent antibody flow cytometry assay (Figure S5). […] Thalidomide and lenalidomide were also included as controls.
# Endogenous IKZF1 Immunostaining
# 37 °C and 5% CO2. Following incubation, cells were stained with LIVE/DEAD™ Fixable Aqua Dead Cell Stain (Thermo) diluted 1000X in PBS for 30 min at room temperature and then incubated with Human TruStain FcX block (Biolegend) diluted 40X in PBS + 1% FBS (Gibco) for 10 min at room temperature. Intranuclear staining of IKZF1 was carried out using the Transcription Factor Buffer Set (BD Bioscience) according to the manufacturer's protocol and staining with IKZF1 AF488 antibody (clone R32-1149, BD Bioscience) diluted 40X for 30 minutes at room temperature. Cells were acquired on a Cytoflex S (Beckman Coulter) and data analysed using FlowJo 10.8.1 9 (BD).
# [6] = target: T4, endogenous IKZF3 in Jurkat cells (Homo sapiens, UniProt Q96SW2+Q9UKT9); experiment: Western blot for endogenous IKZF3; type: cell-based; conditions: 18 h; for endogenous IKZF3 levels (Western blot): transduced Jurkat cells; for degradation of endogenous IKZF3 (Western blot): untransduced Jurkat cells
# T4 construct: endogenous in cells; host or cells: Jurkat (transduced with ZF-EGFP constructs, or untransduced)
# [7] = target: HEIP mutant ZF degron fused to EGFP (Homo sapiens, UniProt Q96SW2+Q9UKT9, N149E/Q147H/Q150I/S154P); experiment: Ratiometric EGFP:mCherry flow cytometry degradation assay, 18 h
# [8] = WT degron, residues 146/147/149/150/152/153/154/155/167: FQNQGASFL
# [9] = degron residues 146/147/149/150/152/153/154/155/167: FADIGAAFL
# [10] = degron residues 146/147/149/150/152/153/154/155/167: FADIGACFL
# [11] = degron residues 146/147/149/150/152/153/154/155/167: FADIGADFL
# [12] = degron residues 146/147/149/150/152/153/154/155/167: FADIGAEFL
# [13] = degron residues 146/147/149/150/152/153/154/155/167: FWEIGACFL
# [14] = degron residues 146/147/149/150/152/153/154/155/167: FWEIGAKFL (WEIK)
# Chain of HEIP mutant ZF degron fused to EGFP (Q9UKT9 130-189 Q147H/N149E/Q150I/S154P): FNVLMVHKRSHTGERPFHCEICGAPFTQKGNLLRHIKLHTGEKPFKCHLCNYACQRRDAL
# Chain of HEIP mutant ZF degron fused to EGFP (Q96SW2 whole entry, the tested form may be a part): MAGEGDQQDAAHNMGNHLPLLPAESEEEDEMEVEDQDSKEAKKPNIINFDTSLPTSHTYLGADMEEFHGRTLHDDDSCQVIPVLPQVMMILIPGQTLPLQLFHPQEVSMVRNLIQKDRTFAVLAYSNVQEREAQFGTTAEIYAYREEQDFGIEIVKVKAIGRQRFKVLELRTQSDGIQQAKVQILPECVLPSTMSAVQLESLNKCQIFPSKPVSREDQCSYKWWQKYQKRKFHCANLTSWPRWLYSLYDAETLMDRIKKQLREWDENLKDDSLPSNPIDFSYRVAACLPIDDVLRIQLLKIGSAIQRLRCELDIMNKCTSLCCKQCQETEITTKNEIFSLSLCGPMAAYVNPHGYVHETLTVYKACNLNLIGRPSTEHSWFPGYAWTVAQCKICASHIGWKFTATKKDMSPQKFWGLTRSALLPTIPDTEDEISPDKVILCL
# Chain of HEIP mutant ZF degron fused to EGFP (Q16531 whole entry partner, the tested form may be a part): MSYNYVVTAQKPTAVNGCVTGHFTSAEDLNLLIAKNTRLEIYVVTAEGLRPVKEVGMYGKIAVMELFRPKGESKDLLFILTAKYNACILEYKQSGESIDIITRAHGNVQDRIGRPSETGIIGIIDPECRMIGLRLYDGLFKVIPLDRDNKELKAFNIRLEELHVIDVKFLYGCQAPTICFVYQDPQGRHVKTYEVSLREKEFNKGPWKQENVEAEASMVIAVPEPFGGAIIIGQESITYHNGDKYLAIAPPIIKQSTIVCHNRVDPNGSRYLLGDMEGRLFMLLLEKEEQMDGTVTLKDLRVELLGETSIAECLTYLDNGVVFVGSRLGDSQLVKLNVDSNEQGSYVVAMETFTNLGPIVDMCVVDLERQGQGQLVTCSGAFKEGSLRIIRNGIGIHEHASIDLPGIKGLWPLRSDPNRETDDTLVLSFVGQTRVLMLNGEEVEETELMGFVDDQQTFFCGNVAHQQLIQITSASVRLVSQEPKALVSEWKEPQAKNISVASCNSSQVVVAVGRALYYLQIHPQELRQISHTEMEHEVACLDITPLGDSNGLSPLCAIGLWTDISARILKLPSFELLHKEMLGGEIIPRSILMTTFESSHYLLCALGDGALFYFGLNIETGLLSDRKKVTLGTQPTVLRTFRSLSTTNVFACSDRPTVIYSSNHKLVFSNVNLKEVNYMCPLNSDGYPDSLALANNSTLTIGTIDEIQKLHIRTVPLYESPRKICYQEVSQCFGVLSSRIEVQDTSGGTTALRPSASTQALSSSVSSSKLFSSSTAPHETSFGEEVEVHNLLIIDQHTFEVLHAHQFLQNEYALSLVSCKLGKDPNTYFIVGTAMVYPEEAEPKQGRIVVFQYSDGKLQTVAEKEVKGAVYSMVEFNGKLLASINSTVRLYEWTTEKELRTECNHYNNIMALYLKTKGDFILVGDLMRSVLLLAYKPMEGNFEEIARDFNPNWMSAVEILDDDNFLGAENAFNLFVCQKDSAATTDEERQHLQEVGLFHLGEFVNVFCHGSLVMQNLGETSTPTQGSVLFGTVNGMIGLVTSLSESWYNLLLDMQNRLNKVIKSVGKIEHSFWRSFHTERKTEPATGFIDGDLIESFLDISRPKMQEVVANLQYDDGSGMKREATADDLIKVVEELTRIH
# T4 sequence (Q9UKT9 whole entry): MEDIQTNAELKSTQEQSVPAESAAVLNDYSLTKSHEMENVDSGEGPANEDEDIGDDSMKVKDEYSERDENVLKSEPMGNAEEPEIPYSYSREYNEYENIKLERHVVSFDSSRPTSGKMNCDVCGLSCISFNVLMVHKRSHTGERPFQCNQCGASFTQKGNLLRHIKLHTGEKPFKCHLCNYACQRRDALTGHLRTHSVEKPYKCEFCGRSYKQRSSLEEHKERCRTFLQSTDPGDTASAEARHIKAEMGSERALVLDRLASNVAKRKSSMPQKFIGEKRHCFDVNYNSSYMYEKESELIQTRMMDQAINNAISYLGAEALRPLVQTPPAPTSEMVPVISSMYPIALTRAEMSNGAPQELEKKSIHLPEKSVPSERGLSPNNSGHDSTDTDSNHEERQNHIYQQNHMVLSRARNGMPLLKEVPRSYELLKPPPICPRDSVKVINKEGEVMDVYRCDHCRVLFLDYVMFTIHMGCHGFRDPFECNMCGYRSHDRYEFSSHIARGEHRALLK
# T4 sequence (Q96SW2 whole entry): as the sequence (Q96SW2 whole entry, the tested form may be a part) above
# T4 sequence (Q16531 whole entry partner): as the sequence (Q16531 whole entry partner, the tested form may be a part) above
# T1 sequence (Q9UKT9 130-189 Q147A): as the sequence (Q9UKT9 130-189 Q147H/N149E/Q150I/S154P) above, with H18A, E20N, I21Q, P25S counted along it
# T1 sequence (Q96SW2 whole entry, the tested form may be a part): as the sequence (Q96SW2 whole entry, the tested form may be a part) above
# T1 sequence (Q16531 whole entry partner, the tested form may be a part): as the sequence (Q16531 whole entry partner, the tested form may be a part) above
# Chain of WDIA mutant ZF degron fused to EGFP (Q9UKT9 130-189 Q147W/N149D/Q150I/S154A): as the sequence (Q9UKT9 130-189 Q147H/N149E/Q150I/S154P) above, with H18W, E20D, P25A counted along it
# Chain of WDIA mutant ZF degron fused to EGFP (Q96SW2 whole entry, the tested form may be a part): as the sequence (Q96SW2 whole entry, the tested form may be a part) above
# Chain of WDIA mutant ZF degron fused to EGFP (Q16531 whole entry partner, the tested form may be a part): as the sequence (Q16531 whole entry partner, the tested form may be a part) above
# T2 sequence (Q9UKT9 130-189): as the sequence (Q9UKT9 130-189 Q147H/N149E/Q150I/S154P) above, with H18Q, E20N, I21Q, P25S counted along it
# T2 sequence (Q96SW2 whole entry, the tested form may be a part): as the sequence (Q96SW2 whole entry, the tested form may be a part) above
# T2 sequence (Q16531 whole entry partner, the tested form may be a part): as the sequence (Q16531 whole entry partner, the tested form may be a part) above
# T3 sequence (Q13422 whole entry): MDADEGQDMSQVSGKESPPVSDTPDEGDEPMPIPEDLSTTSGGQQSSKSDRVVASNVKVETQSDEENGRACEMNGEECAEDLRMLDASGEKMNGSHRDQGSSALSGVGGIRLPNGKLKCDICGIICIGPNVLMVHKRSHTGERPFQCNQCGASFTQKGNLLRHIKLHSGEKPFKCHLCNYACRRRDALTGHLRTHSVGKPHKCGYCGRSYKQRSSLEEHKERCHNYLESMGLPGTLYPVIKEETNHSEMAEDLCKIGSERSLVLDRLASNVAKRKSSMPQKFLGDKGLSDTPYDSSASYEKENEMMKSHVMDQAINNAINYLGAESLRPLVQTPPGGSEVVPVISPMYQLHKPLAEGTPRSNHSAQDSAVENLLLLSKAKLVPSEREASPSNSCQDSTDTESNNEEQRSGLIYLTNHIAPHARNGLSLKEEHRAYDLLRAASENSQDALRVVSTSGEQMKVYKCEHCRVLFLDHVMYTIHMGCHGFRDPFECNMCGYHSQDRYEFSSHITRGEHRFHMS
# T3 sequence (Q96SW2 whole entry): as the sequence (Q96SW2 whole entry, the tested form may be a part) above
# T3 sequence (Q16531 whole entry partner): as the sequence (Q16531 whole entry partner, the tested form may be a part) above
structure (smiles),measurement,setting,value
CN1CCN(c2ccc3c(c2)C(=O)N(C2CCC(=O)NC2=O)C3=O)CC1 (stereo not shown) [Compound 23],Log2FC,[1]; [8],-1.4561 and -1.46
same,logFC,[1]; [9],2.104
same,logFC,[1]; [10],0.9928
same,logFC,[1]; [11],-0.7621
same,logFC,[1]; [12],-0.08962
same,Log2FC,[1]; degron residues 146/147/149/150/152/153/154/155/167: FWDIGAAFL (WDIA),4.2601 and 4.26
same,Log2FC,[1]; degron residues 146/147/149/150/152/153/154/155/167: FWDIGANFL,4.2762 and 4.276
same,Log2FC,[1]; degron residues 146/147/149/150/152/153/154/155/167: FWDIGASFL,4.2199
same,Log2FC,[1]; degron residues 146/147/149/150/152/153/154/155/167: FWDVGAAFL,4.1742
same,Log2FC,[1]; degron residues 146/147/149/150/152/153/154/155/167: FWDVGAQFL,4.2369
same,Log2FC,[1]; degron residues 146/147/149/150/152/153/154/155/167: FWDVGASFL,4.2017
same,Log2FC,[1]; [13],4.1830
same,Log2FC,[1]; degron residues 146/147/149/150/152/153/154/155/167: FWEIGAHFL,4.1861
same,Log2FC,[1]; [14],4.1692
same,Log2FC,[1]; degron residues 146/147/149/150/152/153/154/155/167: FWEIGASFL (WEIS),4.4149 and 4.45 and 4.449
same,Log2FC,[1]; degron residues 146/147/149/150/152/153/154/155/167: FWEQGASFL,4.1915
same,Log2FC,[1]; degron residues 146/147/149/150/152/153/154/155/167: FWEVGAQFL,4.1344
same,Log2FC,[1]; degron residues 146/147/149/150/152/153/154/155/167: FWEVGASFL,4.2567 and 4.257
same,Log2FC,[1]; degron residues 146/147/149/150/152/153/154/155/167: FWNIGAQFL (WNIQ),4.2715 and 4.27 and 4.275
same,Log2FC,[1]; degron residues 146/147/149/150/152/153/154/155/167: FWNQGASFL (WNQS),3.90
same,Log2FC,[1]; degron residues 146/147/149/150/152/153/154/155/167: FWNVGASFL,4.1357
same,Log2FC,[1]; degron residues 146/147/149/150/152/153/154/155/167: FWPVGAQFL,4.1974
same,Log2FC,[1]; degron residues 146/147/149/150/152/153/154/155/167: FYEIGASFL,4.1371
same,Log2FC,[1]; degron residues 146/147/149/150/152/153/154/155/167: FYEVGAEFL,4.1417
same,Log2FC,[1]; degron residues 146/147/149/150/152/153/154/155/167: FYEVGASFL,4.2356
same,Dmax,"[2]; Jurkat, 18 h",79%
same,Selectivity (WT/mutant),[3]; DC50(WT)/DC50(WDIA),22.0
same,DC50,"[3]; WDIA, Jurkat, 18 h",0.0288 µM
same,pDC50,"[3]; WDIA, Jurkat, 18 h",7.54
same,proteins degraded (quantitative proteomics),Jurkat cells,no major effect on any of the 9644 quantified proteins
same,Degradation pDC50 WT,[4],5.96
same,DC50,[4],0.631 µM
same,pDC50,[4],6.20
same,degradation of endogenous IKZF1,[5],did not induce degradation of endogenous IKZF1
same,endogenous IKZF3 levels (Western blot),[6],remained unaffected
same,degradation of endogenous IKZF3 (Western blot),[6],do not induce degradation of endogenous IKZF3
CC(C)(C)c1ccc2c(c1)C(=O)N(C1CCC(=O)NC1=O)C2=O (stereo not shown) [Compound 19],Log2FC,[1]; [8],-1.8291 and -1.83
same,logFC,[1]; [9],3.42
same,logFC,[1]; [10],2.8476
same,logFC,[1]; [11],0.3339
same,logFC,[1]; [12],0.9661
same,Log2FC,[1]; degron residues 146/147/149/150/152/153/154/155/167: FAEIGAAFL,3.8965
same,Log2FC,[1]; degron residues 146/147/149/150/152/153/154/155/167: FAEIGARFL,3.8372
same,Log2FC,[1]; degron residues 146/147/149/150/152/153/154/155/167: FAEVGAKFL (AEVK),3.9176 and 3.92 and 3.918
same,Log2FC,[1]; degron residues 146/147/149/150/152/153/154/155/167: FAEVGARFL,3.9084
same,Log2FC,[1]; degron residues 146/147/149/150/152/153/154/155/167: FAEVGASFL,3.8698
same,Log2FC,[1]; degron residues 146/147/149/150/152/153/154/155/167: FANQGASFL (ANQS),-0.98
same,Log2FC,[1]; degron residues 146/147/149/150/152/153/154/155/167: FAPIGASFL (APIS),3.73
same,Log2FC,[1]; degron residues 146/147/149/150/152/153/154/155/167: FFDIGAPFL (FDIP),3.9195 and 3.92 and 3.919
same,Log2FC,[1]; degron residues 146/147/149/150/152/153/154/155/167: FFEVGAPFL (FEVP),3.9979 and 4.00 and 3.998
same,Log2FC,[1]; degron residues 146/147/149/150/152/153/154/155/167: FFPIGAPFL,3.9164
same,Log2FC,[1]; degron residues 146/147/149/150/152/153/154/155/167: FGEVGARFL,3.8587
same,Log2FC,[1]; degron residues 146/147/149/150/152/153/154/155/167: FGPIGACFL,3.9002
same,Log2FC,[1]; degron residues 146/147/149/150/152/153/154/155/167: FGPVGACFL,3.8841
same,Log2FC,[1]; degron residues 146/147/149/150/152/153/154/155/167: FGPVGAMFL,3.8585
same,Log2FC,[1]; degron residues 146/147/149/150/152/153/154/155/167: FHEIGAPFL (HEIP),4.0013 and 4.00 and 4.001
same,Log2FC,[1]; [13],3.8152
same,Log2FC,[1]; [14],3.9155 and 3.96 and 3.955
same,Log2FC,[1]; degron residues 146/147/149/150/152/153/154/155/167: FYEIGAKFL,3.9035
same,Log2FC,[1]; degron residues 146/147/149/150/152/153/154/155/167: FYEIGAPFL,3.8608
same,Log2FC,[1]; degron residues 146/147/149/150/152/153/154/155/167: FYEVGAAFL,3.8726
same,Log2FC,[1]; degron residues 146/147/149/150/152/153/154/155/167: FYNIGAPFL,3.8168
same,Log2FC,[1]; degron residues 146/147/149/150/152/153/154/155/167: FYPIGAPFL,3.8626
same,DC50,"[2]; ANQS, Jurkat, 18 h, Fig 5A",0.537 µM
same,pDC50,"[2]; ANQS, Jurkat, 18 h, Fig 5A",6.27
same,Selectivity (WT/mutant),"[2]; DC50(WT)/DC50(ANQS), Fig 5A",1.4
same,Dmax,"[2]; Jurkat, 18 h",87%
same,Degradation pDC50 WT,[4],6.05
same,DC50,[4],0.759 µM
same,pDC50,[4],6.12
same,Selectivity (WT/mutant),[7]; DC50(WT)/DC50(HEIP),25 and 25.1
same,DC50,"[7]; HEIP, Jurkat, 18 h",0.0302 µM
same,pDC50,"[7]; HEIP, Jurkat, 18 h",7.52
same,degradation of endogenous IKZF1,[5],did not induce degradation of endogenous IKZF1
same,endogenous IKZF3 levels (Western blot),[6],remained unaffected
same,degradation of endogenous IKZF3 (Western blot),[6],do not induce degradation of endogenous IKZF3
